Laboratory results: paper PMC5369524 (Chemical Science, 2016)

Key:
[1] = test system: HIV; conditions: ref [55]; cited from earlier work
[2] = molecular target: full NCp7 zinc finger peptide (Human immunodeficiency virus type 1 group M subtype B, UniProt P12493); conditions: positive band centered at 210–220 nm
[3] = molecular target: full NCp7 peptide (Human immunodeficiency virus type 1 group M subtype B, UniProt P12493)
[4] = molecular target: C-terminal ZF2 of HIV1NCp7 (Human immunodeficiency virus type 1 group M subtype B, UniProt P12493); conditions: figures in parentheses of Table 1

Compound | Anti-HIV activity [1] | Effect on CD spectrum / tertiary structure of NCp7 [2] | K a, association with full NCp7 peptide ([3]; figures in bold parentheses of Table 1) | K a, association constant with full NCp7 peptide ([3]; fluorescence quenching) | K a, association with C-terminal ZF2 of HIV1NCp7 [4]
CCn1cnc2c(=O)[nH]c(N)nc21.N.[Cl][Pt+].c1ccc2ncccc2c1 [SP-4-2-[PtCl(NH3)(9-EtGua)(quinoline)]^+] | modest anti-HIV activity | – | – | – | –
CCn1cnc2c(=O)[nH]c(N)nc21.NCCNCCN.[Pt+2] [[Pt(dien)(9-EtGua)]^2+] | – | no major disruption of the peptide | (20 ± 0.08) ×10^3 M^–1 | 2.0 × 10^4 M^–1 | (13.10 ± 0.94) ×10^3 M^–1
